“Also recorded” adds a separate entry of the source.
How the values were obtained:
[1] = tested on: BALB/c mice bearing subcutaneous Neuro2a tumors; experiment: Reporter gene delivery in vivo (CPP/pLuc2, luciferase in tissues); set-up: species or system mouse; settings: for tumor specificity of reporter gene induction (luciferase levels in tissues): one iv dose of CPP/pLuc2 at CR4, plasmid 0.8 mg/kg, PEGylation rate 50%, tissues 24 h after injection
Description: (§1) For in vivo studies, the plasmid dose was 0.8 mg/kg per animal; the pDNA was mixed with the CPP at CR 4 in MQ water, keeping the final complex volume at 100 μL. After 40‐minute incubation, 100 μL of 10% glucose was added to the complexes and injected immediately via tail vein. The luciferase encoding plasmid used in reporter gene experiments in vivo was p‐CMV‐Luc2, marked as pLuc2 in the text, which is optimized for in vivo use.
(§2) If not stated otherwise, the PEGylation rate of peptides in the CPP/pDNA complexes was 50% in all in vivo experiments.
(§3) Mouse Neuro2a and HT1080 tumor xenografts were induced by resuspending 1 × 10^6 cells in 100 μL volume of ice‐cold un‐supplemented DMEM and implanting the cell suspension subcutaneously to the right flank of the mouse (Neuro2a: 4‐ to 6‐week‐old BALB/c; HT1080: Hsd:Athymic Nude‐Foxn1nu female, 4‐6 weeks old, Harlan, UK). The 4T1 orthotopic tumors were induced by injecting 5 × 10^4 cells in 50 μL of ice‐cold un‐supplemented RPMI into the fourth mammary fat pad of 4‐ to 8‐week‐old female BALB/c mice.
Twenty‐four hours after the intravenous administration of CPP/pLuc2 complexes, the mice bearing Neuro2a tumors were sacrificed by cervical dislocation and tissues were harvested and snap‐frozen on dry ice. The tissues were homogenized using Precellys®24‐Dual homogenization system (Bertin Technologies, France) and lyzed with 1 × Promega lysis buffer (Promega). Luminescence was analyzed as described in in vitro transfection methods section.

[2] = tested on: Neuro2a cells; experiment: In vitro transfection of CPP/pGL3 complexes, luciferase activity, with and without MMP-2 treatment; format: cell-based, mouse; settings: CPP/pGL3 complexes CR3 incubated with MMP-2 (3.8 ng/μL) 37 °C 40 min before transfection, 24 h, Figure 1B
Description: CPP/pDNA nanoparticles for cell culture assays were prepared by mixing plasmid DNA (0.5 μg per well of a 24‐well plate) with CPPs, at CPP/pDNA charge ratio 3 (CR3) in MQ water with final volume of 105 μL, followed by a 40‐minute incubation at room temperature. pGL3 Control (Promega, Stockholm, Sweden) was used as the luciferase encoding plasmid since it is best suitable for in vitro use.
Twenty‐four hours before the experiment 3 × 10^4 Neuro2a cells were seeded onto 24‐well plates. Peptide/pDNA complexes at CR3 were prepared as described above. The transfection mixture was added to cells containing full media, and it made up 1/10 of the total cell medium volume during the time of transfection. Lipofectamine™ 2000 (Invitrogen, Carlsbad, CA) was used according to the manufacturer's protocol and added to the cells in serum‐containing medium. After 4‐hour incubation with the complexes, an additional 1 mL of fresh medium was added to the cells and incubated for an additional 20 hours. Thereafter, the media was removed, cells were lyzed with 100 μL 0.1% Triton X‐100 in PBS for 15 minutes at 4°C. Luciferase activity was measured using Promega's luciferase assay (Luciferase Assay System, Promega) according to the manufacturer's protocol on GLOMAX™ 96 microplate luminometer (Promega) and normalized to protein content, which was measured with the BioRad Protein Assay (Hercules, CA) according to the manufacturer's protocol.
To study the effect of MMP‐2 cleavage on transfection efficiency, active recombinant MMP‐2 enzyme (0.1 mg/mL, Calbiochem, Germany) was added to the CPP/pDNA complexes in MQ (final MMP‐2 concentration 3.8 ng/μL), and incubated at 37°C for 40 minutes prior transfection.

[3] = tested on: sc HT1080 tumors; experiment: Tumor growth reduction study, HT1080 fibrosarcoma model; format: in vivo, mouse; settings: nude athymic mice, sc HT1080, CPP/pshVEGF CR4, 0.8 mg/kg every other day, three doses (two iv, third ip), n = 10, compared to pshVEGF alone; Figure 3A
Description: as §1, §2, §3
(§4) Before treatment, the mice were assigned into six groups of 10. CPP/pshVEGF treatment for HT1080 tumor‐bearing animals was started at the first appearance of tumor growth (tumor size of approximately 100 mm^3). […] The tumor sizes were measured with calipers three times a week. […]

[4] = tested on: orthotopic 4T1 tumors; experiment: Tumor growth reduction study, orthotopic 4T1 breast tumor model; format: in vivo, mouse; settings: BALB/c mice, orthotopic 4T1, treatment from 1 day after implantation, CPP/pshVEGF CR4, 0.8 mg/kg every other day, three doses, n = 10; Figure 3B
Description: as §1, §2, §3, §4

[5] = molecular target: active human recombinant MMP-2 enzyme (Homo sapiens, UniProt P08253)
Description: Cleavage assay of MMP-2 cleavable CPPs that contain iRGD. The peptides were incubated with
The mixture was then analyzed with RP-UPLC (C18 reverse phase column, eluted with 20-
80% acetonitrile in water, 0.1% TFA). […] Enzyme digestion
products were confirmed by MALDI-ToF mass spectrometry.
Peptide cleavability by MMP-2
To assess the cleavability of iRGD-modified CPPs by MMP-2, the peptides were incubated
with recombinant MMP-2 (0.1 mg/ml, Calbiochem, Germany) in MQ water for 40 minutes at
37°C and analyzed with UPLC.

[6] = tested on: Neuro2a cells; settings: CPP/pLuc2 CR3, 0.1 μg pDNA, 4 h at 37 °C in 50% FBS (MQ for controls), then transfection of Neuro2a cells, luciferase read-out; Figure 2A
Description: The stability of the CPP/pDNA nanoparticles to degradation and dissociation by components found in serum was assessed by reporter gene expression in cells after 4 hours incubation of CPP/pLuc2 complexes with 50% FBS. Complexes were formed as described previously, with 0.1 μg pDNA (CR 3), and incubated at room temperature for 40 minutes. After this, FBS (or MQ for controls) was added to the complexes, and the mixture incubated at 37°C for 4 hours (final FBS concentration 50%). For transfection, 1 × 10^4 Neuro2a cells were seeded to transparent 96‐well plates in supplemented DMEM media 24 hours before experiment. On the day of the experiment, the cells were transfected and luciferase expression analyzed as described in previous section (In vitro transfection).

[7] = Heparin displacement assay (PicoGreen); format: physicochemical; settings: CPP/pLuc2 CR3, 0.1 μg pDNA per well, MQ water, heparin 30 min 37 °C, 100% = naked pDNA, Figure 2B
Description: Accessibility of pDNA in complexes formed between pDNA and CPPs was assessed by Quant‐iT™ PicoGreen® (Thermo Fisher Scientific) assay in mQ water. CPP/pLuc2 nanoparticles at CR3 were prepared as described previously, and transferred to black 96 well plates (0.1 μg of pDNA per well). Heparin solution was added into the wells and incubated at 37°C for 30 minutes. For detection, PicoGreen® was added to the wells, and incubated for 20 minutes. Fluorescence was measured by fluorimeter (λex = 492 nm, λem = 535 nm) (SynergyMx, BioTek).

[8] = tested on: tumors; settings: systemic reporter gene plasmid delivery; cited from earlier work
Source text: In a previous paper MMP‐activatable CPPs PepFect144 (PF144), PepFect145 (PF145), and PepFect146 (PF146) were designed, where the cell penetration ability of the CPPs was reversibly masked by attaching a PEG molecule to the C‐terminus of the peptides via an MMP‐2/‐9 cleavable linker. […] Although plasmid DNA has been successfully used in combination with small molecule therapeutics,31, 32 achieving a clinical effect by plasmid delivery ...

active human recombinant MMP-2 enzyme, sequence (P08253 110-660): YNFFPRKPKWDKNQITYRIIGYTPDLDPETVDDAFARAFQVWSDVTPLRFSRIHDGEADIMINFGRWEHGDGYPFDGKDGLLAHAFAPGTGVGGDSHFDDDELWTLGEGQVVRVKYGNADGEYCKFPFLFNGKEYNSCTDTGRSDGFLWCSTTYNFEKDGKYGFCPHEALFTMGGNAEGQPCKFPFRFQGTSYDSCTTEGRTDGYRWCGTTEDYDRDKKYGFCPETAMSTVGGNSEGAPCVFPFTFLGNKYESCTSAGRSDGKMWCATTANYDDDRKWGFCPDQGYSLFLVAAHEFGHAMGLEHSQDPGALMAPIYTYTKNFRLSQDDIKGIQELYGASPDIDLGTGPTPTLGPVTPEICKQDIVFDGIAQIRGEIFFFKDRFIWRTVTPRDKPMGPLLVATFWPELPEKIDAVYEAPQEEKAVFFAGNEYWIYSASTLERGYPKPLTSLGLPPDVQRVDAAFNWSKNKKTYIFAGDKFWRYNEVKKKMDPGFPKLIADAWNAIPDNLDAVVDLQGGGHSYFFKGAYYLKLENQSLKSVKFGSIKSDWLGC

C*RGDKGPDC*‐NH2 (disulfide) [iRGD, tumor‐homing peptide, αvβ3 integrin targeting ligand, reference compound]
luciferase levels in tissues on coadministration of standalone iRGD with CPP/pLuc2 nanoparticles ([1]; iRGD coadministered (molar amount equal to that of PF14) with PF144 or PF145 nanoparticles, iv, CR4, 0.8 mg/kg plasmid, 24 h, Figure 1C): high luciferase levels in spleen; also recorded: high reporter gene expression in the spleen

Stearyl‐AGYLLGKLLOOLAAAALOOLL‐X‐LALGPG‐PEG1000‐C*RGDKGPDC*‐NH2 (disulfide) [PF148‐iRGD]
transfection efficiency after incubation with MMP-2 enzyme (enzyme-dependent activation) [2]: no enzyme‐dependent activation | tumor specificity of reporter gene induction (luciferase levels in tissues) ([1]; Figure 1C): unable to induce luciferase expression in any tissue | effect on tumor growth, HT1080 model [3]: no effect on tumor size | effect on tumor growth, 4T1 model [4]: no effect on tumor size | cleavability of the MMP-2 sensitive linker by the MMP-2 enzyme [5]: resistant to MMP‐2 degradation

Stearyl‐AGYLLGKLLOOLAAAALOOLL‐X‐PLGLAG‐PEG600‐C*RGDKGPDC*‐NH2 (disulfide) [PF144‐iRGD, iRGD‐functionalized PF144]
transfection efficiency after incubation with MMP-2 enzyme (enzyme-dependent activation) [2]: fully restored to the level of PF14 | tumor specificity of reporter gene induction (luciferase levels in tissues) ([1]; Figure 1C): decreased the tumor specificity; also recorded: reduction in tumor specificity

Stearyl‐AGYLLGKLLOOLAAAALOOLL‐X‐PLGLAG‐PEG600‐NH2 [PF144]
sensitivity of CPP/pDNA nanoparticles to serum treatment (transfection efficiency before and after FBS) [6]: highest stability to serum and heparin treatment out of all the PEGylated peptides | resistance of pDNA in complexes to heparin displacement (relative PicoGreen fluorescence) [7]: significantly more resistant to heparin treatment than other PEGylated CPPs tested | tissue/tumor specificity of plasmid DNA delivery in vivo [8]: efficient tumor specificity; also recorded: successful in mediating tumor‐specific gene delivery

Stearyl‐AGYLLGKLLOOLAAAALOOLL‐X‐PLGLAG‐PEG1000‐C*RGDKGPDC*‐NH2 (disulfide) [PF145‐iRGD, iRGD‐functionalized PF145]
transfection efficiency after incubation with MMP-2 enzyme (enzyme-dependent activation) [2]: fully restored to the level of PF14 | reporter gene induction at different PEGylation rates ([1]; PF145-iRGD/pLuc2 CR4, 20 µg, PEGylation rates 40%, 50%, 70% (rest PF14), iv, 24 h, N=3 per group, Figure S2): 50% being the most effective of the three | tumor specificity of reporter gene induction (luciferase levels in tissues) ([1]; Figure 1C): preserved its tumor specificity; also recorded: minimal luciferase induction in healthy tissues | effect on tumor growth, HT1080 model [3]: did not translate into efficient tumor treatment | effect on tumor growth, 4T1 model [4]: performs worse than PF144

Stearyl‐AGYLLGKLLOOLAAAALOOLL‐X‐PLGLAG‐PEG1000‐NH2 [PF145]
sensitivity of CPP/pDNA nanoparticles to serum treatment (transfection efficiency before and after FBS) [6]: lowest transfection efficiency after serum treatment | tissue/tumor specificity of plasmid DNA delivery in vivo [8]: successful in mediating tumor‐specific gene delivery
